Values of other authors, collected in US20220251295A1 (DYNAMIC BIOLOGICS INC., priority 2019, published 2022).
Blank lines part the entries; values can stand above or below the compound they belong to.

Experiments:
[1] = Phase III clinical trials
[2] = administered with levodopa
[3] = levodopa alone

Compound: CCOC(=O)[C@@H](N)Cc1ccc(O)c(O)c1 [Etilevodopa]
efficacy compared with Levodopa [1]: less efficacious than Levodopa

Compound: C[C@@](Cc1ccc(O)c(O)c1)(NN)C(=O)O [carbidopa]
reduction of the amount of levodopa required to produce a given response [2]: 75%

Plasma half-life of levodopa [3]: ~50 min
Compound: N[C@@H](Cc1ccc(O)c(O)c1)C(=O)O [levodopa, (S)-2-amino-3-(3,4-dihydroxyphenyl)propanoic acid]
